{
  "source": "patent US20080138440A1",
  "about": "“Methods of diagnosing and alleviating gadolinium toxicity” (priority 2006, published 2008)",
  "origin": "cited, not measured here",
  "settings": "high doses; cited from earlier work",
  "data": [
    {"smiles": "CNC[C@H](O)[C@@H](O)[C@H](O)[C@H](O)CO.CNC[C@H](O)[C@@H](O)[C@H](O)[C@H](O)CO.O=C([O-])CN(CCN(CC(=O)[O-])CC(=O)O)CCN(CC(=O)[O-])CC(=O)O.[Gd+3]", "note": "[gadopentetate dimeglumine injection, gadopentetate dimeglumine]", "values": [
      {"measurement": "arrhythmias", "result": "Arrhythmias have been noted"}
    ]}
  ]
}
